Measured values published in doi:10.64898/2025.12.10.692519v1 (biorxiv, 2025).
Like-named read-outs stand apart in the source and are kept apart here. Blank lines part the entries; values can stand above or below the molecule they belong to.

Experiments:
Assay in all cases: cells
786-O = conditions: Homo sapiens, 786-0, 144 h, read-out: Lexibulin (CYT997)
A-549 = conditions: Homo sapiens, A549, 144 h
ACHN = conditions: Homo sapiens, ACHN, 144 h, read-out: Lexibulin (CYT997)
CCRF-CEM = conditions: Homo sapiens, CCRF-CEM, 144 h
DU-145 = conditions: Homo sapiens, DU-145, 144 h
H-1299 = conditions: Homo sapiens, NCI-H1299, 144 h
HEP-2 = conditions: Homo sapiens, HEp-2, 144 h
HGC-27 = conditions: Homo sapiens, HGC-27, 144 h
HL-60 = conditions: Homo sapiens, HL-60, 144 h
HRT-18 = conditions: Homo sapiens, HRT-18, 144 h
HUT-78 = conditions: Homo sapiens, HuT78, 144 h
Karpas-299 = conditions: Homo sapiens, KARPAS-299, 144 h
LnCaP = conditions: Homo sapiens, LNCaP, 144 h, read-out: Lexibulin (CYT997)
MCF-7 = conditions: Homo sapiens, MCF7, 144 h, read-out: Lexibulin (CYT997)
MDA-MB-468 = conditions: Homo sapiens, MDA-MB-468, 144 h, read-out: Lexibulin (CYT997)
MESSA [1] = conditions: Homo sapiens, MES-SA, 144 h, read-out: Lexibulin (CYT997)
MOLM-14 = conditions: Homo sapiens, MOLM-14, 144 h, read-out: Lexibulin (CYT997)
NALM-6 = conditions: Homo sapiens, NALM-6, 144 h
NOMO-1 = conditions: Homo sapiens, NOMO-1, 144 h, read-out: Lexibulin (CYT997)
PANC-1 = conditions: Homo sapiens, PANC-1, 144 h
PC-3 = conditions: Homo sapiens, PC-3, 144 h, read-out: Lexibulin (CYT997)
PLC-PRF5 = conditions: Homo sapiens, PLC-PRF-5, 144 h
REC-1 = conditions: Homo sapiens, Rec1, 144 h
THP-1 = conditions: Homo sapiens, THP-1, 144 h, read-out: Lexibulin (CYT997)
Tov21G = conditions: Homo sapiens, TOV21G, 144 h, read-out: Lexibulin (CYT997)
U-118 = conditions: 144 h
U87-MG = conditions: Homo sapiens, U-87 MG, 144 h
A4573 = conditions: A4573, 144 h, read-out: Unesbulin (PTC-596)
SK-N-MC = conditions: Homo sapiens, SK-N-MC, 144 h, read-out: Unesbulin (PTC-596)
SW-872 = conditions: Homo sapiens, SW872, 144 h, read-out: Unesbulin (PTC-596)
U2OS = conditions: Homo sapiens, U2OS, 144 h, read-out: Unesbulin (PTC-596)
WEHI-164 = conditions: Mus musculus, WEHI-164, 144 h, read-out: Unesbulin (PTC-596)
MESSA [2] = system: MESSA; parameters: species or system MES-SA/Mx2; conditions: Homo sapiens, MES-SA, read-out: MES-SA
CHRF = system: CHRF; parameters: species or system CMK; conditions: 72 h, read-out: Doxorubicin (IC50 nM)
CMK = system: CMK; parameters: species or system CHRF; conditions: Homo sapiens, 72 h, read-out: Doxorubicin (IC50 nM)

IC50 (786-O): 165 nM | IC50 (A-549; read-out: Lexibulin (CYT997)): 21 nM | IC50 (ACHN): 36 nM | IC50 (CCRF-CEM; read-out: Lexibulin (CYT997)): 8 nM | IC50 (DU-145; read-out: Lexibulin (CYT997)): 32 nM | IC50 (H-1299; read-out: Lexibulin (CYT997)): 7 nM | IC50 (HEP-2; read-out: Lexibulin (CYT997)): 16 nM | IC50 (HGC-27; read-out: Lexibulin (CYT997)): 8 nM | IC50 (HL-60; read-out: Lexibulin (CYT997)): 8 nM | IC50 (HRT-18; read-out: Lexibulin (CYT997)): 31 nM | IC50 (HUT-78; read-out: Lexibulin (CYT997)): 6 nM | IC50 (Karpas-299; read-out: Lexibulin (CYT997)): 4 nM | IC50 (LnCaP): 52 nM | IC50 (MCF-7): 12 nM | IC50 (MDA-MB-468): 685 nM | IC50 (MESSA [1]): 24 nM | IC50 (MOLM-14): 45 nM | IC50 (NALM-6; read-out: Lexibulin (CYT997)): 9 nM | IC50 (NOMO-1): 280 nM | IC50 (PANC-1; read-out: Lexibulin (CYT997)): 13 nM | IC50 (PC-3): 142 nM | IC50 (PLC-PRF5; read-out: Lexibulin (CYT997)): 25 nM | IC50 (REC-1; read-out: Lexibulin (CYT997)): 10 nM | IC50 (THP-1): 9 nM | IC50 (Tov21G): 13 nM | IC50 (U-118; read-out: Lexibulin (CYT997)): 13 nM | IC50 (U87-MG; read-out: Lexibulin (CYT997)): 20 nM
Compound: CCC[C@H](Nc1nc(-c2ccc(NC(=O)NCC)c(OC)c2)ncc1C)c1cccnc1 [Lexibulin]

IC50 (A-549; read-out: Unesbulin (PTC-596)): 13 nM | IC50 (A4573): 21 nM | IC50 (CCRF-CEM; read-out: Unesbulin (PTC-596)): 27 nM | IC50 (DU-145; read-out: Unesbulin (PTC-596)): 17 nM | IC50 (H-1299; read-out: Unesbulin (PTC-596)): 5 nM | IC50 (HEP-2; read-out: Unesbulin (PTC-596)): 10 nM | IC50 (HGC-27; read-out: Unesbulin (PTC-596)): 9 nM | IC50 (HL-60; read-out: Unesbulin (PTC-596)): 48 nM | IC50 (HRT-18; read-out: Unesbulin (PTC-596)): 11 nM | IC50 (HUT-78; read-out: Unesbulin (PTC-596)): 20 nM | IC50 (Karpas-299; read-out: Unesbulin (PTC-596)): 34 nM | IC50 (NALM-6; read-out: Unesbulin (PTC-596)): 30 nM | IC50 (PANC-1; read-out: Unesbulin (PTC-596)): 21 nM | IC50 (PLC-PRF5; read-out: Unesbulin (PTC-596)): 25 nM | IC50 (REC-1; read-out: Unesbulin (PTC-596)): 17 nM | IC50 (SK-N-MC): 14 nM | IC50 (SW-872): 18 nM | IC50 (U-118; read-out: Unesbulin (PTC-596)): 33 nM | IC50 (U2OS): 12 nM | IC50 (U87-MG; read-out: Unesbulin (PTC-596)): 11 nM | IC50 (WEHI-164): 31 nM
Compound: Cc1nc2ccc(F)cc2n1-c1nc(N)c(F)c(Nc2ccc(C(F)(F)F)cc2)n1 [Unesbulin]

Compound: COc1cccc2c1C(=O)c1c(O)c3c(c(O)c1C2=O)C[C@@](O)(C(=O)CO)C[C@@H]3O[C@H]1C[C@H](N)[C@H](O)[C@H](C)O1 [doxorubicin]
IC50 (MESSA [2]): 71 ± 56 nM | IC50 (CHRF): 681 nM | IC50 (CMK): 844 nM
